This is an account of results in patent publication US20190187129A1, “CANCER MODELING PLATFORMS AND METHODS OF USING THE SAME” (Wake Forest University Health Sciences, priority 2016, published 2019).

Each structure is given as a SMILES string. Some results are limits rather than exact numbers.

The test system of one assay is CACO2 cells. Description: 3D hyaluronan-based hydrogel construct drug screen, MTS assay. As to conditions: Homo sapiens, Caco-2, 3D, read-out: percent relative cell viability (MTS, relative to control). How it is done: Polydimethylsiloxane, or PDMS, was used to coat the bottom of the wells. Cells were embedded within the hyaluronan-based hydrogel and were given 5 days to acclimate to their three-dimensional environment and on day 5 were administered different anticancer drug solutions (FIG. 7, panel A). […] At 100 μM concentrations of Regorafenib and Sorafenib, cellular viability remained below 25% that of the control for all four of the colorectal cancer cell lines utilized. The only exception to this was when 100 μM Regorafenib was administered to CACO2 cells and the percent relative cell viability rose to approximately 48%. […] At a 100 μM concentration, Dabrafenib had greater efficacy in targeting the HCT116 and SW480 cell lines, which had relative cellular viability values of 38% and 43%, as opposed to the HT29 and CACO2 cell lines, which had higher cell viability values of 93% and 75%. 100 μM concentrations of Trametinib produced relative cellular viability results that fell within a narrow range for the four colorectal cell lines with values of 54% for SW480 cells and 74% for HT29 cells.
(§1) Well Coating with PDMS and Cell Isolation: Polydimethylsiloxane, or PDMS, (DOW Corning, North Carolina, USA) was used at a 1:10 curing agent ratio to coat the bottom of the 96-well plates and the plates were then placed in a 80° C. oven for at least one hour. Cells were passaged in the same methods previously mentioned (A) with the desire to place 10 μL 3D hyaluronan-based hydrogel constructs containing 100,000 cells each ([…]) into the wells of a 96-wells plate for all four colorectal cancer cell types. Depending on the cell count, a desired number of cells were isolated in new 15 mL centrifuge tubes as cell-media solution and underwent centrifugation.
(§2) Hydrogel Components of the Single-Cell Type Constructs: The hyaluronic acid-based hydrogel (ESI BIO, California, USA) was produced using a mixture of three components: Heprasil, Gelin-S, and Extralink PEGDA 2-ARM Acrylate crosslinker. These components were mixed in a 2:2:1 ratio by volume. 0.1% Irgacure photoinitiator (Sigma-Aldrich, Missouri, USA) was added to each of the three components prior to their mixture and the three components were placed in a 37° C. incubator for a ˜30 minutes to solubilize.
Forming Organoid Constructs: Once solubilized, the media was aspirated from the 15 mL centrifuge tube (post-centrifugation) and the cells were isolated as a pellet. The hydrogel components were added directly into the centrifuge tube containing the cells and the cells were carefully resuspended in the mixture. 10 μL of the gel-cell solution was placed in the center of the wells on the PDMS coating. This was continued for all wells containing cells and was repeated for each cell type. […]
For orientation: Formazan colour is commonly taken as a measure of viable cells.

Assay [1] has as its system HCT116 cells. The assay is described as above. To be noted: Homo sapiens, HCT-116, 3D, read-out: percent relative cell viability (MTS, relative to control). How it is done: Polydimethylsiloxane, or PDMS, was used to coat the bottom of the wells. Cells were embedded within the hyaluronan-based hydrogel and were given 5 days to acclimate to their three-dimensional environment and on day 5 were administered different anticancer drug solutions (FIG. 7, panel A). […], Dabrafenib had greater efficacy in targeting the HCT116 and SW480 cell lines, which had relative cellular viability values of 38% and 43%, as opposed to the HT29 and CACO2 cell lines, which had higher cell viability values of 93% and 75%. […]
as §1, §2
Forming Organoid Constructs: Once solubilized, the media was aspirated from the 15 mL centrifuge tube (post-centrifugation) and the cells were isolated as a pellet. The hydrogel components were added directly into the centrifuge tube containing the cells and the cells were carefully resuspended in the mixture. 10 μL of the gel-cell solution was placed in the center of the wells on the PDMS coating. This was continued for all wells containing cells and was repeated for each cell type. After this point, the gel can be exposed to UV light from a BlueWave 200 spot light (Dymax, Connecticut, USA) to solidify the hydrogel, or one can wait ˜30 minutes for the gel to form on its own. DMEM-10 media was then placed in the wells and the constructs were incubated for 5 days.
Anticancer Drug Screening and Cell Viability: The same five anticancer drugs were added on Day 5 and the cell viability assay occurred on Day 7.

Another assay has as its system SW480 cells. The assay is described as follows: 2D drug screen, MTS assay. Type of assay: cell-based. As to conditions: Homo sapiens, read-out: relative cellular viability (MTS, relative to control). How it is done: (§3) Cancer cells seeded directly into wells were given 4-5 hours to reattach to the bottom of the wells. After that time, the anticancer drug solutions were administered in place of the media (FIG. 6, panel A) and an MTS assay was carried out 2 days later to determine cell viability. […] At 100 μM concentrations of Regorafenib and Sorafenib, and 100 mM concentrations of 5-FU, cellular viability remained below 20% that of the control for all four of the colorectal cancer cell lines utilized. However, screening with Dabrafenib and Trametinib produced diverging results from the other three anticancer drugs at higher concentrations. […] When treated with 1 mM concentrations of 5-FU, relative cellular viability was approximately 39% for SW480 cells and remained between 10%-22% for the HCT116, HT29, and CACO2 cells. These values were considerably lower than the relative cellular viability values for the lowest concentrations of the other anticancer drugs.
(§4) Cell Seeding: The original 15 mL centrifuge tubes containing the 10 mL of DMEM-10, cells, and trypsin were placed into a centrifuge. The centrifugation setting was 1500 RPM and at maximal acceleration for 5 minutes. After that time, the media and trypsin mixture was aspirated from the tubes, leaving the cell pellets still intact. 5 mL of DMEM-10 was then pipetted into each of the tubes, resuspending the cells in the process. Calculated volumes of the 5 mL cell-media solution were determined to ensure that 25,000 cells of each of the four colorectal cancer cell lines were seeded directly into each of the wells of a polystyrene clear-bottom 96-well plate. 100 μL of DMEM-10 media was then pipetted directly into the wells. The 96-well plates were incubated at 37° C. and 5% CO2 for 5 hours to allow the cells to reattach themselves to the bottom of the wells until media was aspirated and anticancer drug solutions were added.
(§5) Addition of Anticancer Drugs for Screening: The anticolorectal cancer drugs used in this screening included 5-FU, Regorafenib, Sorafenib, Trametinib, and Dabrafenib (Sigma-Aldrich, Missouri, USA)). High concentration drug stock solutions were created with DMSO. Lower concentration drug solutions were created by mixing the anticancer drug stocks with DMEM-10 media. […] drug solutions were generated for 5-FU; 1 μM, 10 μM, and 100 μM drug solutions were generated for Regorafenib, Sorafenib, and Dabrafenib; and 1 nM, 10 nM, and 100 nM drug solutions were generated for Trametinib. Media was carefully aspirated from the wells and 200 μL of the various drug-media solutions were placed into the wells containing cells. Three duplicates were generated for each anticancer drug concentration with each of the different cell types to calculate averages and run statistics on the data generated. Well plates were then incubated at 37° C. and 5% CO2 for […].
(§6) Cell viability assay: Cell viability was determined 48 hours after exposure to the anticancer drug solutions. The viability of the cells was examined by the CellTiter 96® AQueous One Solution Cell Proliferation (MTS) assay (Promega, Wisconsin, USA). The anticancer drug-media solutions were aspirated from the wells and 200 μL of the MTS reagent was carefully pipetted into the wells. The incubation time for the cells with the MTS reagent was approximately 45 minutes. The cell viability assay was performed on another 96-well plate and the absorbance was quantified by the EnVision Multilabel Plate Reader (PerkinElmer, California, USA).

Assay [2] deals with HCT116 cells. Description: cells. Type of assay: cell-based. As to conditions: Homo sapiens, HCT-116, read-out: relative cellular viability (MTS, relative to control). How it is done: as §3, §4, §5, §6

In the case of `O=c1[nH]cc(F)c(=O)[nH]1` [5-FU, 5-Fluorouracil], the viability (usually the share of living cells, or the viability signal relative to a control) at 10000 µM in the assay on CACO2 cells (10 mM, CACO2) is 22%; with HCT116 cells [1] (10 mM, HCT116), 18%. Moreover, the viability at 100000 µM with HCT116 cells [1] (100 mM, HCT116) was 81%; in the assay on SW480 cells (100 mM), less than 20%. The viability at 1000 µM in the assay on SW480 cells (1 mM) was approximately 39%.
Turning to `CNC(=O)c1cc(Oc2ccc(NC(=O)Nc3ccc(Cl)c(C(F)(F)F)c3)c(F)c2)ccn1` [Regorafenib], the viability at 100 µM with CACO2 cells (100 μM, CACO2, drug day 5, assay day 7) is approximately 48%; in the assay with HCT116 cells [1] (100 μM, HCT116, drug day 5, assay day 7) it was less than 25%; with HCT116 cells [2], less than 20%; with SW480 cells (100 μM) it was less than 20%.
